ChEMBL document CHEMBL3286208, “Pyranocoumarins from Glehnia littoralis inhibit the LPS-induced NO production in macrophage RAW 264.7 cells” (Bioorg Med Chem Lett, 2014)

Experiments:
[1] = tested on: RAW264.7; assay: Inhibition of LPS-induced NO production in mouse RAW264.7 cells after 24 hrs by Griess method; format: functional, cell-based; conditions: RAW264.7, 24 h
[2] = Cytotoxicity against mouse RAW264.7 cells assessed as cell viability at 0.5 to 50 uM; format: cell-based; conditions: read-out: Activity

Row | IC50 [1] | Structure (SMILES) | viability at up to 50 µM [2]
1 | 9.9 µM | CC(C)=CC(=O)O[C@H]1c2c(ccc3ccc(=O)oc23)OC(C)(C)[C@H]1OC(=O)CC(C)C | > 90%
2 | 7.4 µM | CC(C)CC(=O)O[C@H]1c2c(ccc3ccc(=O)oc23)OC(C)(C)[C@H]1OC(=O)CC(C)C | > 90%
3 | 18.8 µM | CC(=O)O[C@H]1c2c(ccc3ccc(=O)oc23)OC(C)(C)[C@H]1OC(=O)CC(C)C | > 90%
4 | 44.3 µM | CC(=O)O[C@H]1c2c(ccc3ccc(=O)oc23)OC(C)(C)[C@H]1OC(=O)C=C(C)C | > 90%

More lines, now with the values behind:

Row | Structure (SMILES) | IC50 [1] | viability at up to 50 µM [2]
5 | N=C(N)NN [PIMAGEDINE] | 16.9 µM | 
6 | CC(C)=CC(=O)O[C@H]1c2c(ccc3ccc(=O)oc23)OC(C)(C)[C@H]1OC(=O)C=C(C)C | 9.8 µM | > 90%
7 | CC(C)C(=O)O[C@H]1c2c(ccc3ccc(=O)oc23)OC(C)(C)[C@H]1OC(=O)C(C)C | 28.2 µM | > 90%
